From US4965280A, “Antifungal carbinols” (E. I. Du Pont de Nemours and Company, priority 1989, dated 1990)
In brackets after ≈: the same amount, converted by molar mass.

Legend:
Venturia inaequalis = assay: Example A apple scab; type: in vivo; conditions: read-out: disease control rating, Ex. A
Procedure, shortened: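 Test compounds were dissolved in acetone (6% of final volume) and suspended at 100 or 20 ppm in purified water containing 250 ppm of the surfactant TREM 014 (polyhydric alcohol esters). Apple seedlings were sprayed with this suspension to the point of run-off.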

[1] = test system: Cercosporidium personatum; assay: Example B Peanut Late Leafspot; type: in vivo; conditions: Nothopassalora personata, read-out: disease control rating, Ex. B
Procedure, shortened: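 Compounds were dissolved in acetone (6% of final volume) and suspended at 100 or 20 ppm in purified water containing 250 ppm TREM 014 surfactant (polyhydric alcohol esters). The suspension was sprayed to run-off on peanut seedlings.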

Botrytis cinerea = assay: Example C bean grey mold; type: in vivo; conditions: Botrytis cinerea, 24 h, read-out: disease control rating, Ex. C
Procedure, shortened: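 Test compounds were taken up in acetone (6% of final volume) and suspended at 100 or 20 ppm in purified water containing 250 ppm TREM 014 surfactant (polyhydric alcohol esters). Broad bean seedlings were sprayed with this suspension until run-off.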

[2] = test system: Erysiphe graminis f. sp. tritici; assay: Example D wheat powdery mildew; type: in vivo; conditions: Blumeria graminis, 144 h, read-out: disease control rating, Ex. D
Procedure, shortened: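 Compounds were dissolved in acetone (6% of final volume), then suspended at 100 or 20 ppm in purified water containing 250 ppm TREM 014 surfactant. Wheat seedlings were sprayed with this suspension to run-off.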

Rhizoctonia solani [3] = assay: Example F rice sheath blight; type: in vivo; conditions: Rhizoctonia solani, 144 h, read-out: disease control rating, Ex. F
Procedure, shortened: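 Compounds, dissolved in acetone at 6% of final volume, were suspended at 100 or 20 ppm in purified water with 250 ppm polyhydric alcohol ester surfactant (TREM 014). Rice seedlings were sprayed with this suspension to run-off.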

Puccinia recondita = assay: Example G wheat leaf rust; type: in vivo; conditions: read-out: disease control rating, Ex. G
Phytophthora infestans = assay: whole plant or invertebrate; type: in vivo; conditions: Phytophthora infestans, in Solanum lycopersicum, read-out: disease control rating, Ex. H, 100 PPM
Rhizoctonia solani [4] = assay: Example K cotton blight; type: in vivo; conditions: 336 h, 5 kg/ha, read-out: disease control rating, Ex. K
Experimental: […] Seeds and soil were then inoculated with a mixture of sand, cereal and mycelium of the fungus Rhizoctonia solani, causal agent of cotton blight, and incubated in a growth chamber at 30° C. for 14 days. Disease ratings were then made.

[5] = test system: Fusarium oxysporum f. sp. cucumerinum; assay: Example L cucumber wilt; type: in vivo; conditions: 336 h, 5 kg/ha, read-out: disease control rating, Ex. L
Experimental: […] Seeds and soil were then inoculated with a mixture of sand, cereal and mycelium of the fungus Fusarium oxysporum f. sp. cucumerinum, causal agent of cucumber wilt, and incubated in a growth chamber at 30° C. for 14 days. Disease ratings were then made.

Sclerotium rolfsii = assay: Example M southern blight; type: in vivo; conditions: Agroathelia rolfsii, 336 h; 5 kg/ha; read-out: disease control rating, Ex. M
Experimental: […] Seeds and soil were then inoculated with a mixture of sand, cereal and mycelium of the fungus Sclerotium rolfsii, causal agent of sourthern blight, and incubated in a growth chamber at 30° C. for 14 days. Disease ratings were then made.

BARNYARDGRASS = assay: Test C rice paddy; type: in vivo, Echinochloa crusgalli; conditions: Echinochloa crus-galli, 504 h, 21 days, read-out: plant response; for pest or weed control at 64 g/ha: 0064 G/HA; for pest or weed control at 125 g/ha: 0125 G/HA; for pest or weed control at 250 g/ha: 0250 G/HA; for pest or weed control at 500 g/ha: 0500 G/HA
Procedure, shortened: (§1)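 Transplanted paddy test in flooded silt loam: Japonica and Indica rice at 2.0–2.5 leaf stage, water plantain, Scirpus and Cyperus seedlings or sprouted tubers, barnyardgrass from seed. Water raised to 3 cm 3–4 days after planting; compound in nonphytotoxic solvent added to paddy water within 24 h. Greenhouse.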

WATERCHESTNUT = assay: Test C rice paddy; type: in vivo, Eleocharis spp.; conditions: Eleocharis, 504 h, 21 days, read-out: plant response; for pest or weed control at 64 g/ha: 0064 G/HA; for pest or weed control at 125 g/ha: 0125 G/HA; for pest or weed control at 250 g/ha: 0250 G/HA; for pest or weed control at 500 g/ha: 0500 G/HA
Procedure, shortened: (§2)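 Greenhouse paddy pots of saturated silt loam received rice seedlings at the 2.0–2.5 leaf stage, transplanted weed seedlings or sprouted tubers, and barnyardgrass seed. After flooding to 3 cm at 3–4 days, solvent-formulated test chemical went straight into the water within 24 h.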

ARROWHEAD = assay: Test C rice paddy; type: in vivo, Sagittaria spp.; conditions: Sagittaria, 504 h, 21 days, read-out: plant response; for pest or weed control at 64 g/ha: 0064 G/HA; for pest or weed control at 125 g/ha: 0125 G/HA; for pest or weed control at 250 g/ha: 0250 G/HA; for pest or weed control at 500 g/ha: 0500 G/HA
Procedure, shortened: as §2

YELLOW NUTSEDGE = assay: Test C rice paddy; type: in vivo, Cyperus esculentus; conditions: 21 days
Description: Sixteen cm diameter Airlite plastic pots were partially filled with Tama slit loam soil and the soil saturated with water. Japonica and Indica rice seedlings a the 2.0 to 2.5 leaf stage were transplanted into 1/3 of the pots. Into another third of the pots were transplanted seedling or sprouted tubers of water plantain (Alisma trivale), Scripus (Scirpus paludosus), Cyperus (Cyperus esculentus), and arrowhead (Sagittaria spp.). The remaining pots were planted with barnyardgrass (Echinochloa crusgalli) seeds and sprouted tubes of water chestnut (Eleocharis spp.). These weeds all represent major rice weeds or genera of weeds important in rice. Three to four days after planting, the water level was raised to 3 cm (about 1200 ml/pot) and maintained a this level throughout the test. Chemical treatments were applied directly to the paddy water, within 24 hours of raising the water, after being formulated in a nonphytotoxic solvent. The pots were maintained in the greenhouse.

RICE JAP EFF = assay: Test C rice paddy; type: in vivo, Japonica rice; conditions: Oryza sativa, 504 h, 21 days, read-out: plant response; for pest or weed control at 64 g/ha: 0064 G/HA; for pest or weed control at 125 g/ha: 0125 G/HA; for pest or weed control at 250 g/ha: 0250 G/HA; for pest or weed control at 500 g/ha: 0500 G/HA
Procedure, shortened: as §1

RICE INDICA EFF = assay: Test C rice paddy; type: in vivo; conditions: Oryza sativa, 504 h, 21 days, read-out: plant response; for pest or weed control at 64 g/ha: 0064 G/HA; for pest or weed control at 125 g/ha: 0125 G/HA; for pest or weed control at 250 g/ha: 0250 G/HA; for pest or weed control at 500 g/ha: 0500 G/HA
Procedure, shortened: as §1

[6] = test system: Candida albicans ATCC 11651; assay: In vitro antifungal MIC, microtiter broth dilution; conditions: Candida albicans, ATCC11651, 24 h, read-out: MIC values, C. albicans, 30°, 24 hours
Experimental: In vitro activity (Table 5) is expressed in terms of the minimal inhibitory concentration (MIC) of the test compound which inhibits the growth of yeasts and fungi.
The target organisms, Candida albicans ATCC 11651 and Aspergillus fumigatus ATCC 28214 are standardized, [V. Bezjak, J. Clinical Micro., 21 509-512 (1984)], to a concentration of 10^7 organisms/ml and maintained at -70° until use. Test compounds are solubilized in dimethyl sulfoxide (DMSO) and diluted in Eagle's Minimum Essential Medium (EMEM) broth to achieve a final concentration of 200 μg/ml. Stock solutions of standard antifungal agents are stored at -70° and diluted in EMEM as required.
The in vitro assay utilizes a microtiter broth dilution technique [L. Polonelli and G. Morace, Mycopathologia, 86, 21-28 (1984)] and C. […] The appropriate wells are inoculated with the required organism (C. albicans at 1×10^4 organisms/ml and A. fumigatus at 5×10^5 organisms/ml) and the assay incubated at 30° for 24 hours.

## C=C(c1ccccc1Cl)C(O)(Cn1cncn1)c1ccc(Cl)cc1Cl (stereo not drawn) [Example 33, 2-(2,4-Dichlorophenyl)-3-(2-chlorophenyl)-1-(1H-1,2,4-triazol-1-yl)-3-buten-2-ol]
Venturia inaequalis; 20 PPM
  pest or weed control at 20 ppm: 47%
[1]; 20 PPM
  pest or weed control at 20 ppm: 99%
Botrytis cinerea; 20 PPM
  pest or weed control at 20 ppm: 37%
Botrytis cinerea
  pest or weed control at 100 ppm: 56%
[2]; 20 PPM
  pest or weed control at 20 ppm: 89%
Rhizoctonia solani [3]; 20 PPM
  pest or weed control at 20 ppm: 29%
Rhizoctonia solani [3]
  pest or weed control at 100 ppm: 60%
Puccinia recondita; 20 PPM
  pest or weed control at 20 ppm: 100%
Phytophthora infestans
  pest or weed control at 100 ppm: 0%
Rhizoctonia solani [4]
  pest or weed control at 5000 g/ha: 0%
[5]
  pest or weed control at 5000 g/ha: 0%
Sclerotium rolfsii
  pest or weed control at 5000 g/ha: 0%
BARNYARDGRASS
  pest or weed control at 64 g/ha: 0%
  pest or weed control at 125 g/ha: 10%
  pest or weed control at 250 g/ha: 80%
  pest or weed control at 500 g/ha: 70%
  pest or weed control at 1000 g/ha: 95%
WATERCHESTNUT
  pest or weed control at 64 g/ha: 0%
  pest or weed control at 125 g/ha: 0%
  pest or weed control at 250 g/ha: 0%
  pest or weed control at 500 g/ha: 0%
  pest or weed control at 1000 g/ha: 0%
ARROWHEAD
  pest or weed control at 64 g/ha: 0%
  pest or weed control at 125 g/ha: 0%
  pest or weed control at 250 g/ha: 0%
  pest or weed control at 500 g/ha: 0%
  pest or weed control at 1000 g/ha: 0%
YELLOW NUTSEDGE; 0064 G/HA
  plant response: 0
YELLOW NUTSEDGE; 0125 G/HA
  plant response: 0
YELLOW NUTSEDGE; 0250 G/HA
  plant response: 0
YELLOW NUTSEDGE; 0500 G/HA
  plant response: 0
YELLOW NUTSEDGE; 1000 G/HA
  plant response: 40
RICE JAP EFF
  pest or weed control at 64 g/ha: 0%
  pest or weed control at 125 g/ha: 0%
  pest or weed control at 250 g/ha: 0%
  pest or weed control at 500 g/ha: 30%
  pest or weed control at 1000 g/ha: 60%
RICE INDICA EFF
  pest or weed control at 64 g/ha: 0%
  pest or weed control at 125 g/ha: 0%
  pest or weed control at 250 g/ha: 0%
  pest or weed control at 500 g/ha: 30%
  pest or weed control at 1000 g/ha: 70%
[6]
  MIC: 0.03 µg/mL (≈ 0.076 µM)

## C=C(c1ccccc1Cl)C(O)(Cn1cncn1)c1ccc(F)cc1F (stereo not drawn) [Example 35]
Venturia inaequalis; 100 PPM
  pest or weed control at 100 ppm: 100%
[1]; 100 PPM
  pest or weed control at 100 ppm: 100%
Botrytis cinerea
  pest or weed control at 100 ppm: 96%
[2]; 100 PPM
  pest or weed control at 100 ppm: 100%
Rhizoctonia solani [3]
  pest or weed control at 100 ppm: 100%
Puccinia recondita; 100 PPM
  pest or weed control at 100 ppm: 96%
Phytophthora infestans
  pest or weed control at 100 ppm: 0%
Rhizoctonia solani [4]
  pest or weed control at 5000 g/ha: 0%
[5]
  pest or weed control at 5000 g/ha: 0%
Sclerotium rolfsii
  pest or weed control at 5000 g/ha: 0%
BARNYARDGRASS
  pest or weed control at 64 g/ha: 70%
  pest or weed control at 125 g/ha: 100%
  pest or weed control at 250 g/ha: 80%
  pest or weed control at 500 g/ha: 100%
  pest or weed control at 1000 g/ha: 95%
WATERCHESTNUT
  pest or weed control at 64 g/ha: 60%
  pest or weed control at 125 g/ha: 40%
  pest or weed control at 250 g/ha: 60%
  pest or weed control at 500 g/ha: 0%
  pest or weed control at 1000 g/ha: 0%
ARROWHEAD
  pest or weed control at 64 g/ha: 0%
  pest or weed control at 125 g/ha: 0%
  pest or weed control at 250 g/ha: 40%
  pest or weed control at 500 g/ha: 50%
  pest or weed control at 1000 g/ha: 95%
YELLOW NUTSEDGE; 0064 G/HA
  plant response: 0
YELLOW NUTSEDGE; 0125 G/HA
  plant response: 0
YELLOW NUTSEDGE; 0250 G/HA
  plant response: 60
YELLOW NUTSEDGE; 0500 G/HA
  plant response: 95
YELLOW NUTSEDGE; 1000 G/HA
  plant response: 100
RICE JAP EFF
  pest or weed control at 64 g/ha: 0%
  pest or weed control at 125 g/ha: 0%
  pest or weed control at 250 g/ha: 0%
  pest or weed control at 500 g/ha: 0%
  pest or weed control at 1000 g/ha: 20%
RICE INDICA EFF
  pest or weed control at 64 g/ha: 0%
  pest or weed control at 125 g/ha: 0%
  pest or weed control at 250 g/ha: 0%
  pest or weed control at 500 g/ha: 0%
  pest or weed control at 1000 g/ha: 20%
[6]
  MIC: 0.03 µg/mL (≈ 0.0829 µM)
